A short description of the assay: Inhibition of NF-kappaB activation.

These results are taken from ChEMBL document CHEMBL1156034, “The first pharmacophore model for potent NF-kappaB inhibitors” (Bioorg Med Chem Lett, 2009).

Where a SMILES comes first, the peptide text is derived from it. The star is where a group is joined. Cbz = O=C(OCc1ccccc1)* Where only a bound is given, the exact number is not on record here.

A word on the IC50: it is the concentration that inhibits the measured activity by half. Lower therefore signals greater potency in that assay. `O=S1(=O)Nc2c(ccc3cccnc23)-c2cc(C(F)(F)F)ccc21` came in with a concentration for half-maximal inhibition (IC50) of 1000 nM.
The compound `O=S1(=O)Nc2c(ccc3cccnc23)-c2cc(Cl)ccc21` came in with an IC50 of 1100 nM.
For the compound `COc1ccc2c(c1)-c1ccc3cccnc3c1NS2(=O)=O`, the IC50 turned out to be 1000 nM.
`CC(C)Oc1ccc(CCNc2ncnc3ccc(N)cc23)cc1` had an IC50 of 40 nM.
For `NC(=O)c1ccc(CCNc2ncnc3ccc(N)cc23)cc1`, the IC50 stood at 7330 nM.
On to `COc1cccc(CCNc2ncnc3ccc(N)cc23)c1`, for which the IC50 amounted to 210 nM. Compared with the last compound, the IC50 is about 35-fold lower.
Consider `Clc1ccc(CCNc2ncnc3ccc(Oc4ccccc4)cc23)cc1`, for which the 50% inhibitory concentration (IC50) was found to be 7340 nM.
As to `O=S1(=O)Nc2c(ccc3cccnc23)-c2cc(F)ccc21`, the IC50 was found to be 1700 nM.
`Nc1ccc2ncnc(NCCN3CCOCC3)c2c1`: the half-inhibitory concentration (IC50) is above 10000 nM.
Turning to `Nc1ccc2ncnc(NCCc3ccccc3)c2c1`, half-maximal inhibition (IC50) was put at 311 nM.
`COc1ccc(S(=O)(=O)Nc2cccc3ccc(C)nc23)c([N+](=O)[O-])c1` gave an IC50 of 1000 nM. Against the preceding compound, the IC50 is about 3.2-fold higher.
`O=[N+]([O-])c1cc(C(F)(F)F)ccc1S(=O)(=O)Nc1cccc2cccnc12`: the IC50 stood at 3700 nM.
To `CC(C)c1cccc(C(C)C)c1N1C(=O)c2ccc(O)cc2C1=O` belongs 530 nM.
Compound `COc1cnc2c3c(ccc2c1)-c1ccccc1S(=O)(=O)N3` returned a 50% inhibitory concentration (IC50) of 2500 nM.
In turn, `O=[N+]([O-])c1cc2c(NCCc3ccc(Cl)cc3)ncnc2cc1Cl` showed an IC50 of 9060 nM.
Turning to `CCOc1ccc(CCNc2ncnc3ccc(N)cc23)cc1`, it took 21 nM to reach half-maximal inhibition (IC50).
Take `CCCOc1ccc(CCNc2ncnc3ccc(N)cc23)cc1`: the IC50 stood at 20 nM.
Consider `Clc1ccc(CCNc2ncnc3ccccc23)cc1`, for which the IC50 came to 630 nM.
With `Nc1ccc2ncnc(NCCc3ccc(Cl)cc3)c2c1`, the IC50 was 176 nM.
Turning to `Oc1ccc2ncnc(NCCc3ccc(Cl)cc3)c2c1`, the IC50 was 313 nM.
For `Nc1ccc2ncnc(NCCc3ccc(OCc4ccccn4)cc3)c2c1` [listing 1 of 2 here], the midpoint of inhibition, the IC50, lay at 12 nM.
Consider `CC(C)c1cccc(C(C)C)c1N1C(=O)c2ccc(N)cc2C1=O`, for which the concentration for half-maximal inhibition (IC50) came to 29500 nM.
To `Nc1ccc2ncnc(NCCN3CCCCC3)c2c1` belongs above 10000 nM; to `CCCCCCOc1ccc(CCNc2ncnc3ccc(N)cc23)cc1`, 4 nM; to `O=S(=O)(Nc1cccc2cccnc12)c1cccs1`, 3600 nM.
To `Nc1ccc2ncnc(NCCc3ccc(OCc4ccccn4)cc3)c2c1` [listing 2 of 2 here] belongs 14 nM; to `Clc1ccc(CCNc2ncnc3ccc(Cl)cc23)cc1`, 344 nM.
As for `O=[N+]([O-])c1ccccc1S(=O)(=O)Nc1cccc2cccnc12`, the figure is 3200 nM; as for `COc1cc2ccc(C)nc2c2c1-c1cc(C)ccc1S(=O)(=O)N2`, 900 nM.
`Clc1ccc(CCCNc2ncnc3ccccc23)cc1` gave a 50% inhibitory concentration (IC50) of 1400 nM.
Compound `COC(=O)C1[C@@H](O)[C@@]2(O)c3c(OC)cc(OC)cc3O[C@@]2(c2ccc3c(c2)OCO3)[C@@H]1c1ccccc1` (some centres not stated) returned an IC50 of 319 nM. This IC50 lies about 4.4-fold lower than the previous one.
`COc1cc(NS(=O)(=O)c2ccc(C)cc2N)c2ncccc2c1`: the IC50 came to 1000 nM.
For `Cc1ccc2cccc(NS(=O)(=O)c3cccc([N+](=O)[O-])c3)c2n1`, 900 nM corresponded to half-maximal inhibition (IC50).
On to `CC(C)C[C@@H](C=O)NC(=O)[C@H](CC(C)C)NC(=O)[C@H](CC(C)C)NC(=O)OCc1ccccc1` [MG-132] (Cbz-Leu-Leu-Leu-aldehyde), for which the midpoint of inhibition, the IC50, lay at 715 nM.
To `COc1cc2cccnc2c2c1-c1cc(C)ccc1S(=O)(=O)N2` belongs 1200 nM; to `Nc1ccc2ncnc(NCCc3cccc(Cl)c3)c2c1`, 389 nM; to `O=S(=O)(Nc1cccc2cccnc12)c1ccc(Cl)s1`, 1300 nM.
Turning to `Nc1ccc2ncnc(NCCc3ccc(S(N)(=O)=O)cc3)c2c1`, the IC50 was above 10000 nM.
Take `O=[N+]([O-])c1ccc2c(NCCc3ccc(Cl)cc3)ncnc2c1`: the IC50 is 1760 nM.
On to `Nc1cc2c(NCCc3ccc(Cl)cc3)ncnc2cc1Cl`, for which inhibition was half-maximal at 429 nM (IC50).
On to `O=S(=O)(Nc1cccc2cccnc12)c1ccc(Br)s1`, for which the IC50 came to 1100 nM.
`Cc1ccc([N+](=O)[O-])cc1S(=O)(=O)Nc1cccc2cccnc12` displayed an IC50 of 1600 nM.
The compound `CC(=O)Nc1ccc2ncnc(NCCc3ccc(Cl)cc3)c2c1` yielded an IC50 of 4560 nM.
Turning to `Cc1ccc2ccc3c(c2n1)NS(=O)(=O)c1ccc(C(F)(F)F)cc1-3`, the IC50 is 1200 nM.
The compound `Nc1ccc2ncnc(NCCc3ccc(OCc4ccc5ccccc5n4)cc3)c2c1` registered an IC50 of 93 nM.
As for `Nc1ccc2ncnc(NCCc3ccc(Oc4ccccc4)cc3)c2c1`, the figure is 11 nM; as for `CC(=O)Nc1ccc(CCNc2ncnc3ccc(N)cc23)cc1`, 5980 nM; as for `Clc1ccc(CCNc2ccnc3ccccc23)cc1`, 1390 nM.
Turning to `Cc1ccc2c(c1)-c1ccc3cccnc3c1NS2(=O)=O`, the IC50 came out at 600 nM. This IC50 is about 2.3-fold lower than that of the compound before.
Regarding `Cc1csc2ncnc(NC3Cc4ccc(C(=O)N5CCOCC5)cc4C3)c12` (configuration not stated), the IC50 is 38 nM.
For `C#CCOc1ccc(CCNc2ncnc3ccc(N)cc23)cc1`, half-maximal inhibition (IC50) required 40 nM.
As for `Clc1ccc(CCNc2ncnc3ccc(Br)cc23)cc1`, the figure is 851 nM; as for `O=C1c2ccc(O)cc2C(=O)N1c1c(Br)cccc1Br`, 430 nM.
As for `Cc1ccc(CCNc2ncnc3ccc(N)cc23)cc1`, the figure is 210 nM.
Take `COc1ccc([C@@]23Oc4cc(OC)cc(OC)c4[C@]2(O)[C@H](O)[C@H](C(N)=O)[C@H]3c2ccccc2)cc1` [DIDESMETHYLROCAGLAMIDE]: the IC50 came to 44 nM.
Regarding `O=S1(=O)Nc2c(ccc3cccnc23)-c2ccccc21`, the 50% inhibitory concentration (IC50) came out at 1000 nM.
`COc1ccc(CCNc2ncnc3ccc(N)cc23)cc1` came in with a half-maximal inhibitory concentration (IC50) of 90 nM.
To `Nc1ccc2c(NCCc3ccc(Cl)cc3)ncnc2c1` belongs 2200 nM; to `O=[N+]([O-])c1ccc2ncnc(NCCc3ccc(Cl)cc3)c2c1`, 1520 nM.
In turn, `Cc1ccc2cccc(NS(=O)(=O)c3ccc(Cl)s3)c2n1` returned an IC50 of 1000 nM. This IC50 is about 1.5-fold lower than that of the compound before.
The compound `Cc1ccc2cccc(NS(=O)(=O)c3ccccc3[N+](=O)[O-])c2n1` returned a 50% inhibitory concentration (IC50) of 3800 nM. Against the preceding compound, the IC50 is about 3.8-fold higher.
`Cc1ccc(S(=O)(=O)Nc2cccc3cccnc23)c([N+](=O)[O-])c1` gave an IC50 of 2100 nM.
To `O=[N+]([O-])c1ccc(S(=O)(=O)Nc2cccc3cccnc23)cc1` belongs 1500 nM; to `Nc1ccc2ncnc(NCCc3cccnc3)c2c1`, 8270 nM.
As for `Clc1ccc(CCNc2nncc3ccccc23)cc1`, the IC50 was above 10000 nM.
Consider `Clc1ccc(CNc2ncnc3ccccc23)cc1`, for which the IC50 was found to be 1830 nM.
Turning to `Nc1ccc2ncnc(NCCc3ccc(O)cc3)c2c1`, the IC50 was determined as 3640 nM.
For `COC(=O)C1[C@@H](O)[C@@]2(O)c3c(cc4c(c3OC)OCO4)O[C@@]2(c2ccc(OC)cc2)[C@@H]1c1ccccc1` (some centres not stated), the IC50 was found to be 243 nM.
Take `CCCCOc1ccc(CCNc2ncnc3ccc(N)cc23)cc1`: inhibition was half-maximal at 11 nM (IC50). Compared with the last compound, the IC50 is about 22-fold lower.
Compound `Nc1ccc2ncnc(NCCC3CCCCC3)c2c1` had an IC50 of 685 nM.
Consider `Cc1ccc2cccc(NS(=O)(=O)c3ccc(Br)s3)c2n1`, for which the IC50 was 1400 nM.
The compound `Nc1ccc2ncnc(NCCc3ccccc3Cl)c2c1` yielded a half-inhibitory concentration (IC50) of 254 nM.
With `Cc1ccc2ccc3c(c2n1)NS(=O)(=O)c1ccc(O)cc1-3`, the IC50 turned out to be 10000 nM.
As for `Cc1ccc2cccc(NS(=O)(=O)c3ccccc3N)c2n1`, the IC50 was determined as 2800 nM. Against the preceding compound, the IC50 is about 3.6-fold lower.
As to `COc1cc(NS(=O)(=O)c2ccc(C)cc2[N+](=O)[O-])c2ncccc2c1`, it took 2100 nM to reach half-maximal inhibition (IC50).
`COC(=O)C1[C@@H](O)[C@@]2(O)c3c(OC)cc(OC)cc3O[C@@]2(c2ccc(OC)cc2)[C@@H]1c1ccccc1` (some centres not stated) had a 50% inhibitory concentration (IC50) of 197 nM.
In the case of `Nc1ccc2ncnc(NCCN3CCCC3)c2c1`, the IC50 was 3690 nM.
Compound `Nc1ccccc1S(=O)(=O)Nc1cccc2cccnc12` had an IC50 of 2000 nM.
To `Cc1ccc2ncnc(NCCc3ccc(Cl)cc3)c2c1` belongs 730 nM; to `Clc1ccc(CCNc2nccc3ccccc23)cc1`, above 10000 nM.
The compound `Cc1ccc2cccc(NS(=O)(=O)c3ccc(C(F)(F)F)cc3[N+](=O)[O-])c2n1` showed an IC50 of 1100 nM.
For the compound `COc1ccc([C@@]23Oc4cc(OC)cc(OC)c4[C@]2(O)[C@H](O)C[C@H]3c2ccccc2)cc1` [ROCAGLAOL], the IC50 was 499 nM.
In turn, `Clc1ccc(Nc2ncnc3ccccc23)cc1` yielded an IC50 above 10000 nM.
To `CN(C)C(=O)c1ccc(CCNc2ncnc3ccc(N)cc23)cc1` belongs 2590 nM; to `Nc1ccc2ncnc(NCCc3ccc(F)cc3)c2c1`, 574 nM; to `COc1ccc2c(c1)-c1ccc3ccc(C)nc3c1NS2(=O)=O`, 2500 nM.
The compound `CCCCCOc1ccc(CCNc2ncnc3ccc(N)cc23)cc1` had an IC50 of 2 nM.
The compound `c1ccc(CCCNc2ncnc3ccccc23)cc1` registered an IC50 of 2380 nM.
The compound `CC(C)c1cccc(C(C)C)c1N1C(=O)c2cccc(O)c2C1=O` gave an IC50 of 4950 nM.
In the case of `COc1ccccc1CCNc1ncnc2ccc(N)cc12`, the IC50 was found to be 155 nM.
In turn, `Nc1ccc2ncnc(NCCc3ccc(Br)cc3)c2c1` had a half-inhibitory concentration (IC50) of 207 nM.
In turn, `C=CCOc1ccc(CCNc2ncnc3ccc(N)cc23)cc1` registered an IC50 of 12 nM.
